Legend:
CCI rats = assay: Thermal stimulation paw withdrawal latency (PWL) in CCI rats; assay type: in vivo, SD rats; conditions: for PWL: hot plate 50.5° C., cut-off 14s, mean±SEM
Method: SD rats, body weight 180 g-220 g, half of them being male and the other half being female, provided by the Department of Laboratory Animals, Peking University. The rats were raised in a standard environment with temperature of 22±0.5° C. and relative humidity of 55±5%, 12 h/12 h light-dark cycle, and fed with standard feed.
Rat was anesthetized with pentobarbital sodium (60 mg/kg, i.p.), the right hind limb was surgically shaved, fixed in the prone position, a longitudinal incision was made along the middle of the right hind limb of the rat, the muscle was bluntly separated, the sciatic nerve was exposed, and the sciatic nerve bifurcate proximal end was loosely ligated with 4-0 silk suture for 4 times, with an interval of about 1 mm each time, in which the degree of tightness was suitable when it was observed that the right hind leg was slightly shaken. After ligation, the muscle and skin were sutured in sequence. For the sham-operated group, the sciatic nerve was only exposed, but not ligated. The success of modeling was determined by observing whether the hind limb of the rat's operation side was closed, slightly valgus and often vacated, and by measuring the mechanical stimulation paw withdrawal threshold and the thermal stimulation paw withdrawal latency of the rat.
Before surgery, the mechanical stimulation paw withdrawal thresholds and the thermal stimulation paw withdrawal latencies in the rats were determined, and the rats were grouped as: sham operation group (sham), vehicle group (double-distilled water, i.g.), DXL-A-22 group (2 mg/kg, i.g.), DXL-A-24 group (1 mg/kg, i.g.), and Gabapentin group (100 mg/kg, i.g.). All compounds and drugs were dissolved in double-distilled water, and given by intragastric administration at 1 mL/100 g. From the first day after surgery, the administration was carried out every day, and the mechanical stimulation paw withdrawal threshold and the thermal stimulation paw withdrawal latency were measured 2 hours after administration.
The thermal stimulation paw withdrawal latency (PWL) was measured by a hot plate method. The measurement was carried out on the days 5, 7 and 14 after operation. The temperature of the hot plate was 50.5° C. Timing started when the rat was placed on the hot plate, and stopped when the shaking and foot licking responses of the rat appeared, and this time was the PWL of the rat. The hot plate cut-off time was 14s, and the percentage of analgesia (i.e., MPE %) was calculated according to formula (3):
MPE %=(PWL of test group−PWL of vehicle group)/(cut-off time−PWL of vehicle group)×100 (3)

ICR mice [1] = assay: Xylene-induced mouse ear swelling test (Effect Example 4); assay type: in vivo; conditions: Mus musculus, po, 2 h; 1 mg/kg intragastric, 50 uL xylene two hours after administration; read-out: Inhibition rate (%)
Method: (§1) ICR mice, 18-22 g, half of them being male and the other half being female, provided by the Department of Laboratory Animals, Peking University (License No.: SCXK (Beijing) 2016-0010).
ICR mice were randomly grouped, 8 mice per group, half of them being male and the other half being female. Vehicle control group (double-distilled water) and groups for samples to be tested (the compounds and doses thereof were shown in Table 4). All drugs were dissolved in double-distilled water immediately before administration, and given by intragastric administration at predetermined doses. Two hours after administration, 50 uL of xylene was smeared evenly on the inner and outer sides of right ear of mouse. After 30 minutes, the left and right ears of mouse were cut, and circular ear pieces of the same size were punched at the same position on the left and right ears, and weighed. The ear swelling inhibition rate of compound in mice was calculated according to the formula.
Inhibition rate %=(degree of ear swelling in vehicle control group−degree of ear swelling in test group)/degree of ear swelling in vehicle control group×100

ICR mice [2] = assay: Hot plate test; assay type: in vivo; conditions: Mus musculus, po; 1 mg/kg intragastric, latency 2.0 hours after administration, hot plate 55° C.; read-out: PTE %
Method: as §1
The temperature of hot plate was adjusted to 55° C., and the responses of mouse such as licking hind feet and jumping were used as the observation indexes. The time from the placement of mice on copper plate to the appearance of the above responses was defined as latency time. The latency time was measured for three times 30 minutes before administration, and the average value thereof was used as basic threshold, or baseline latency (BL). The animals with a latency time greater than 15 s and less than 5 s were removed, and the residual mice were randomly grouped, 8 animals per group.
Vehicle control group (double-distilled water) and groups for samples to be tested (the compounds and doses thereof were shown in Table 1) were set. All drugs were dissolved in […] before administration, and given by intragastric administration. The latency time was measured 2.0 hours after administration. Percentage of Pain Threshold Elevated Rate (PTE %) of compound on mice was calculated according to the following formula:
PTE %=(latency time of test group−latency time of vehicle control group)/latency time of vehicle control group×100

ICR mice [3] = assay: Carrageenan-induced paw swelling in mice; assay type: in vivo; conditions: 1 mg/kg i.g.; for 0.5 h inhibition rate (%) / 0.5 h swelling degree (μL): 0.5 h after carrageenan injection; for 0.5 h swelling degree (μL) / 1 h swelling degree (μL) / 2 h swelling degree (μL): mean±SD; for 1 h inhibition rate (%) / 1 h swelling degree (μL): 1 h after carrageenan injection; for 2 h inhibition rate (%) / 2 h swelling degree (μL): 2 h after carrageenan injection
Method: ICR mice, body weight 18 g-22 g, half of them being male and the other half being female, provided by the Department of Laboratory Animals, Peking University. The animals were raised in a standard environment: temperature 23±1° C., relative humidity 55±5%, light-dark cycle 12 h/12 h, and fed with standard pellet feed.
The mouse was fixed in a special holder, and both hind feet were exposed. Before the test, a line was drawn at 0.5 cm below the ankle joint of mouse with a marker, and used as a mark for measuring plantar volume. 30 minutes before administration the volume of right hind foot was measured as basic threshold. The mice were randomly divided into 5 groups, 8 mice per group, half of them being male and the other half being female. Vehicle control group (double-distilled water, i.g.), dexamethasone control group (0.5 mg/kg, i.g.), compound DXL-A-22 group (1 mg/kg, i.g.), and DXL-A-24 group (1 mg/kg, i.g.) were set. All drugs were dissolved in double-distilled water before administration, and were administered at 0.1 mL/10 g. Immediately after intragastric administration, 20 μL of 5% carrageenan saline solution was injected subcutaneously in the right hind foot of the mice, and the plantar volumes were measured at time points of 0.5 h, 1 h and 2 h after injection. The difference between the plantar volume of right foot after injection of carrageenan and the plantar volume of right foot before injection was used as swelling degree index (i.e., swelling degree). The swelling degree was calculated according to formula (3). The intensity of anti-inflammatory effect was expressed as inhibition rate (%), and the inhibition rate (%) was calculated according to formula (4).
Swelling degree=plantar volume of right foot after injection−plantar volume of right foot before injection (3)
Inflammation inhibition rate (%)=(plantar swelling degree in vehicle control group−plantar swelling degree in drug administration group)/plantar swelling degree in vehicle control group×100% (4)

[4] = 2 mg/kg i.g. daily, Day 5 after operation, section 3.2
[5] = 2 mg/kg i.g. daily, Day 7 after operation, section 3.2
[6] = 2 mg/kg i.g. daily, Day 14 after operation, section 3.2
[7] = 1 mg/kg i.g. daily, Day 5 after operation, section 3.4
[8] = 1 mg/kg i.g. daily, Day 7 after operation, section 3.4
[9] = 1 mg/kg i.g. daily, Day 14 after operation, section 3.4

| Compound | PWL (CCI rats; [4]) | MPE(%) (CCI rats; [4]) | PWL (CCI rats; [5]) | MPE(%) (CCI rats; [5]) | PWL (CCI rats; [6]) | MPE(%) (CCI rats; [6]) | inhibition in vivo at 1 mg/kg (ICR mice [1]) | change in vivo at 1 mg/kg (ICR mice [2]) | 0.5 h inhibition rate (%) (ICR mice [3]) | 0.5 h swelling degree (μL) (ICR mice [3]) | 1 h inhibition rate (%) (ICR mice [3]) | 1 h swelling degree (μL) (ICR mice [3]) | 2 h inhibition rate (%) (ICR mice [3]) | 2 h swelling degree (μL) (ICR mice [3]) | PWL (CCI rats; [7]) | MPE(%) (CCI rats; [7]) | PWL (CCI rats; [8]) | MPE(%) (CCI rats; [8]) | PWL (CCI rats; [9]) | MPE(%) (CCI rats; [9]) |
| --- | --- | --- | --- | --- | --- | --- | --- | --- | --- | --- | --- | --- | --- | --- | --- | --- | --- | --- | --- | --- |
| Br.Brc1ccc(N2CC[N+]3(CCCC3)CC2)cc1 [DXL-A-22, 8-(4-bromophenyl)-5,8-diazaspiro[4.5]decan-5-ium bromide] | 10.84 ± 0.32**/ | 51.61% | 11.28 ± 0.64**/ | 58.91% | 11.19 ± 0.52**/ | 55.61% | 47% | 52.6% | 50.07% | 42.63 ± 16.98**/ μL | 55.56% | 38.50 ± 11.40**/ μL | 65.36% | 38.63 ± 11.67**/ μL | – | – | – | – | – | – |
| FC(F)(F)c1ccc(N2CC[N+]3(CCCC3)CC2)cc1.[Br-] [DXL-A-24, 8-(4-(trifluoromethyl)phenyl)-5,8-diazaspiro[4.5]decan-5-ium bromide] | – | – | – | – | – | – | 53.4% | 48.6% | 52.27% | 40.75 ± 13.34**/ μL | 57.72% | 36.63 ± 16.12**/ μL | 67.49% | 36.25 ± 9.60**/ μL | 11.29 ± 0.57**/ | 52.62% | 12.35 ± 0.55**/ | 72.36% | 13.26 ± 0.43**/ | 88.79% |
